Each structure is given as a SMILES string.

In the test the target is T1, human mGlu2 (Homo sapiens, UniProt Q14416).
T1 construct: expressed in transfected cells; host or cells: HEK-293 cells stably co-expressing GIRK channels
T1 sequence (Q14416 19-872): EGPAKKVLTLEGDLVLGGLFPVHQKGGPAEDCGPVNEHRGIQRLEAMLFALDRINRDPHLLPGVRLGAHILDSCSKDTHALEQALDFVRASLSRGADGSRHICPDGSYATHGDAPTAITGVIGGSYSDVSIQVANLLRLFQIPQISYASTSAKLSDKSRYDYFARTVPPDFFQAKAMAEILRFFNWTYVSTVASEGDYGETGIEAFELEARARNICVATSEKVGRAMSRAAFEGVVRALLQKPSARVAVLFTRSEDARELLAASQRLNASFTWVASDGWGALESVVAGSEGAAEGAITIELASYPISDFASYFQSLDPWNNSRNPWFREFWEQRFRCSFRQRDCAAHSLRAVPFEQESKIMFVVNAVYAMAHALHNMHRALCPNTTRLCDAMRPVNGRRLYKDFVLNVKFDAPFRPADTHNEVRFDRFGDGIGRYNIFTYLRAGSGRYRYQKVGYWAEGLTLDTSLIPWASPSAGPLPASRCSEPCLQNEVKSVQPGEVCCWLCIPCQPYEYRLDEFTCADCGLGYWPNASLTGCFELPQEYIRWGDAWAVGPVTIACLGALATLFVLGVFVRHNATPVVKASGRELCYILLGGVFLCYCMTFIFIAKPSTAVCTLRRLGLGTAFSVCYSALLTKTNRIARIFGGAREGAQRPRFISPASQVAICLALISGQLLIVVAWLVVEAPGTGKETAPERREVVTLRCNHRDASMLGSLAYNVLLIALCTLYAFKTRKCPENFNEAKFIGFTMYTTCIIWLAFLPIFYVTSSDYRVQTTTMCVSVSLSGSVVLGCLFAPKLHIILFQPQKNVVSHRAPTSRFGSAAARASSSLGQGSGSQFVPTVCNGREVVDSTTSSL
As to the kind of experiment: mGlu GIRK cell-based thallium flux assay, human mGlu2. The conditions noted are these: HEK-293 cells co-expressing human mGlu2 and GIRK, EC80 glutamate. Here is the method:
Human embryonic kidney (HEK-293) cell lines stably co-expressing human or rat mGlu2 and G protein-coupled inwardly rectifying potassium (GIRK) channels, or human mGlu3 and GIRK, were used for in vitro evaluation of compound activity in thallium flux assay using a fluorescent thallium indicator dye.
The day before the assay, GIRK cells co-expressing human mGlu3, human or rat mGlu2, as described above, were plated in black-walled, clear-bottomed, amine-coated 384-well plates at a density of 15,000 cells/20 μL/well in the assay medium (glutamine-depleted basal DMEM supplemented with 10% dialyzed FBS, 20 mM HEPES, 1 mM sodium pyruvate). Cells were incubated at 37° C. in the presence of 5% CO2. The next day, assay buffer (Hanks balanced salt solution, 20 mM HEPES, 4.16 mM sodium bicarbonate, pH 7.2) was prepared to dilute compounds and Thallos AM fluorescent dye solution. The 2× Thallos dye solution (final concentration 0.34 μM to the cells) was prepared by mixing the dye stock (2.97 mM in DMSO) to 1:1 with 10% pluronic acid before adding to the assay buffer. Cells were washed with assay buffer using a microplate washer to remove the medium, resulting in 20 μL of buffer remaining in each well. Immediately, 20 μL of 2× Thallos dye solution was added to cells, and incubated for one hour at 25° C. During the cell dye loading incubation period, a 10-point concentration serial dilution of compound was created from a 10 mM DMSO compound stock by performing a 1:3 serial dilution in DMSO using the Bravo liquid handler. The 2× compound plate was generated by transferring 0.24 μL of the diluted compound in each well to a daughter plate using an Echo acoustic liquid handler. This is further diluted in 40 μL assay buffer, resulting in a range from 30 μM to 1.5 nM final concentration in the assay. The agonist plate (5×) was prepared to include EC80 glutamate concentration (a concentration to elicit 80% of a maximally effective glutamate concentration) in thallium buffer (125 mM […], 1 mM magnesium sulfate, 1.8 mM calcium sulfate, 5 mM glucose, 10 mM HEPES, pH 7.2, 12.5 mM thallium sulfate).
After dye-loading, cell plates were washed with assay buffer to remove excess extracellular dye using a microplate washer, resulting in 20 μL of buffer remaining in each well. After a ten-minute equilibration period, cell, compound and agonist plates were loaded into a Hamamatsu μCell kinetic imaging plate reader equipped with liquid handler to monitor fluorescence changes at 480 nm excitation and 540 nm emission settings. Briefly, after collection of baseline fluorescence, 20 μL of compound was added and incubated for two minutes and twenty seconds. This is immediately followed by adding 10 μL of glutamate-thallium buffer to the wells containing compound. The fluorescent signal was monitored an additional 2.5 minutes after the glutamate addition. Multiple reference wells containing no compound received either no glutamate (for a baseline reference), EC80 glutamate, or ECmax glutamate (for normalization to maximum response). Fluorescence was measured throughout the experiment at a frequency of 1 measurement per every 2 seconds before the glutamate addition and a frequency of 1 measurement per every 1 second after the glutamate addition. Each compound concentration series occurred one time in each plate, and replicates from two or three plates were used in each experimental run. Thallium solutions were handled and disposed of according to guidelines from the Vanderbilt University Chemical Safety department.
Data were normalized using a static ratio function (F/F0) by dividing every fluorescent measurement by the initial fluorescent value for the corresponding well. The increase in signal resulting from the glutamate/thallium addition of the second add was measured by determining the slope from 3 seconds to 13 seconds after the addition. […]
`N#Cc1cccc(-c2cc3c(cc2-c2ccc(C(F)(F)F)cc2F)C(=O)NC3)c1` [Compound 144, 3-(6-(2-fluoro-4-(trifluoromethyl)phenyl)-1-oxoisoindolin-5-yl)benzonitrile] had a half-maximal inhibitory concentration (IC50) of 3070 nM. Compound `CC(C)n1cc(-c2cc3c(cc2-c2ccc(F)cc2F)C(=O)NC3)cn1` [Compound 133, 6-(2,4-difluorophenyl)-5-(1-isopropyl-1H-pyrazol-4-yl)isoindolin-1-one] displayed an IC50 of 1820 nM. In the case of `CS(=O)(=O)c1ccccc1-c1cc2c(cc1-c1ccc(F)cc1F)C(=O)NC2` [Compound 128, 6-(2,4-difluorophenyl)-5-(2-(methylsulfonyl)phenyl)isoindolin-1-one] it was 3410 nM. The compound `COc1ccc(-c2cc3c(cc2-c2cccc(C#N)c2)CNC3=O)cc1C#N` [Compound 172, 5-(6-(3-cyanophenyl)-3-oxoisoindolin-5-yl)-2-methoxybenzonitrile] showed an IC50 above 10000 nM. In the case of `N#Cc1cccc(-c2cc3c(cc2-c2ccc(F)c(C#N)c2)C(=O)NC3)c1` [Compound 178, 5-(6-(3-cyanophenyl)-3-oxoisoindolin-5-yl)-2-fluorobenzonitrile] it was above 10000 nM.

`N#Cc1cccc(-c2cc3c(cc2-c2ccc(O)cc2F)C(=O)NC3)c1` [Compound 168, 3-(6-(2-fluoro-4-hydroxyphenyl)-1-oxoisoindolin-5-yl)benzonitrile]: the IC50 is above 10000 nM. In the case of `Cn1ccc(CCc2cc3c(cc2-c2ccc(F)cc2F)C(=O)NC3)n1` [Compound A1, 6-(2,4-difluorophenyl)-5-(2-(1-methyl-1H-pyrazol-3-yl)ethyl)isoindolin-1-one] it was 191 nM; in that of `COc1ccc(-c2cc3c(cc2-c2cccc(C#N)c2)CNC3=O)c(Cl)c1` [Compound 173, 3-(6-(2-chloro-4-methoxyphenyl)-1-oxoisoindolin-5-yl)benzonitrile], 7340 nM; in that of `Cn1cc(S(=O)(=O)Nc2ccccc2-c2cc3c(cc2-c2ccc(F)cc2F)C(=O)NC3)nn1` [Compound 163, N-(2-(6-(2,4-difluorophenyl)-1-oxoisoindolin-5-yl)phenyl)-1-methyl-1H-1,2,3-triazole-4-sulfonamide], 1110 nM. Compound `CNC(=O)c1ccc(F)c(-c2cc3c(cc2-c2ccc(F)cc2F)C(=O)NC3)c1` [Compound 121, 3-(6-(2,4-difluorophenyl)-1-oxoisoindolin-5-yl)-4-fluoro-N-methylbenzamide] had an IC50 of 1440 nM. Under `N#Cc1cccc(-c2cc3c(cc2-c2cc(F)c(F)cc2F)C(=O)NC3)c1` [Compound 140, 3-(1-oxo-6-(2,4,5-trifluorophenyl)isoindolin-5-yl)benzonitrile] stands 1520 nM; under `N#Cc1cccc(-c2cc3c(cc2-c2cc(F)ccc2C#N)C(=O)NC3)c1` [Compound 187, 2-(6-(3-cyanophenyl)-3-oxoisoindolin-5-yl)-4-fluorobenzonitrile], 9580 nM. Compound `N#Cc1cccc(-c2cc3c(cc2-c2ccc(C#N)c(C(F)(F)F)c2)C(=O)NC3)c1` [Compound 179, 4-(6-(3-cyanophenyl)-3-oxoisoindolin-5-yl)-2-(trifluoromethyl)benzonitrile] had a half-maximal inhibitory concentration (IC50) above 10000 nM. Under `Cc1cc(-c2cc3c(cc2-c2cccc(C#N)c2)CNC3=O)c(F)cc1F` [Compound 177, 3-(6-(2,4-difluoro-5-methylphenyl)-1-oxoisoindolin-5-yl)benzonitrile] stands 1350 nM; under `O=C1NCc2cc(-c3ccc(=O)n(C(F)F)c3)c(-c3ccc(F)cc3F)cc21` [Compound 135, 5-(1-(difluoromethyl)-6-oxo-1,6-dihydropyridin-3-yl)-6-(2,4-difluorophenyl)isoindolin-1-one], 2020 nM. Regarding `N#Cc1cccc(-c2cc3c(cc2-c2ccc(F)cc2Cl)C(=O)NC3)c1` [Compound 169, 3-(6-(2-chloro-4-fluorophenyl)-1-oxoisoindolin-5-yl)benzonitrile], half-maximal inhibition (IC50) was put at 2250 nM. In the case of `N#Cc1cc(F)ccc1-c1cc2c(cc1-c1ccc(F)cc1F)C(=O)NC2` [Compound 123, 2-(6-(2,4-difluorophenyl)-1-oxoisoindolin-5-yl)-5-fluorobenzonitrile] it was 447 nM; in that of `[2H]C([2H])(c1ccn(C)n1)C([2H])([2H])c1cc2c(cc1-c1ccc(F)cc1F)C(=O)NC2` [Compound A3, 6-(2,4-difluorophenyl)-5-(2-(1-methyl-1H-pyrazol-3-yl)ethyl-1,1,2,2-d4)isoindolin-1-one], 218 nM; in that of `CNS(=O)(=O)c1cccc(-c2cc3c(cc2-c2ccc(F)cc2F)C(=O)NC3)c1` [Compound 119, 3-(6-(2,4-difluorophenyl)-1-oxoisoindolin-5-yl)-N-methylbenzenesulfonamide], 2700 nM.

The compound `N#Cc1cccc(-c2cc3c(cc2-c2cc(F)ccc2F)C(=O)NC3)c1` [Compound 185, 3-(6-(2,5-difluorophenyl)-1-oxoisoindolin-5-yl)benzonitrile] yielded an IC50 above 10000 nM. The compound `O=C1NCc2cc(CCc3ccn(C4CC4)n3)c(-c3ccc(F)cc3F)cc21` [Compound A8, 5-(2-(1-cyclopropyl-1H-pyrazol-3-yl)ethyl)-6-(2,4-difluorophenyl)isoindolin-1-one] displayed an IC50 of 413 nM. Under `N#Cc1cccc(-c2cc3c(cc2-c2cccc(C#N)c2F)C(=O)NC3)c1` [Compound 183, 3-(6-(3-cyanophenyl)-3-oxoisoindolin-5-yl)-2-fluorobenzonitrile] stands above 10000 nM; under `Cc1ncc(S(=O)(=O)Nc2ccccc2-c2cc3c(cc2-c2ccc(F)cc2F)C(=O)NC3)s1` [Compound 164, N-(2-(6-(2,4-difluorophenyl)-1-oxoisoindolin-5-yl)phenyl)-2-methylthiazole-5-sulfonamide], 955 nM. Take `Nc1ccccc1-c1cc2c(cc1-c1ccc(F)cc1F)C(=O)NC2` [Compound 137, 5-(2-aminophenyl)-6-(2,4-difluorophenyl)isoindolin-1-one]: the IC50 came to 816 nM. Under `Cc1cc(-c2cc3c(cc2-c2cccc(C#N)c2)CNC3=O)c(F)cc1C#N` [Compound 181, 4-(6-(3-cyanophenyl)-3-oxoisoindolin-5-yl)-5-fluoro-2-methylbenzonitrile] stands above 10000 nM; under `COc1ccc(-c2cc3c(cc2-c2cccc(C#N)c2)CNC3=O)c(F)c1F` [Compound 184, 3-(6-(2,3-difluoro-4-methoxyphenyl)-1-oxoisoindolin-5-yl)benzonitrile], 1130 nM; under `CC(C)Cn1cc(-c2cc3c(cc2-c2ccc(F)cc2F)C(=O)NC3)cn1` [Compound 130, 6-(2,4-difluorophenyl)-5-(1-isobutyl-1H-pyrazol-4-yl)isoindolin-1-one], 1000 nM. Under `N#Cc1cccc(-c2cc3c(cc2-c2ccccc2F)C(=O)NC3)c1` [Compound 159, 3-(6-(2-fluorophenyl)-1-oxoisoindolin-5-yl)benzonitrile] stands 1720 nM; under `Cn1ncc(-c2cc3c(cc2-c2ccc(F)cc2F)C(=O)NC3)c1C#N` [Compound 115, 4-(6-(2,4-difluorophenyl)-1-oxoisoindolin-5-yl)-1-methyl-1H-pyrazole-5-carbonitrile], 234 nM; under `CNC(=O)c1cc(Cl)cc(-c2cc3c(cc2-c2ccc(F)cc2F)C(=O)NC3)c1` [Compound 117, 3-chloro-5-(6-(2,4-difluorophenyl)-1-oxoisoindolin-5-yl)-N-methylbenzamide], 737 nM. Take `N#Cc1cccc(CCc2cc3c(cc2-c2ccc(F)cc2F)C(=O)NC3)c1` [Compound A4, 3-(2-(6-(2,4-difluorophenyl)-1-oxoisoindolin-5-yl)ethyl)benzonitrile]: the IC50 was found to be 481 nM.

Source of the values: patent publication US20260098030A1, “NEGATIVE ALLOSTERIC MODULATORS OF METABOTROPIC GLUTAMATE RECEPTOR 2” (Vanderbilt University, priority 2022, published 2026).
